In patent US5416191A, “Bradykinin antagonists” (Cortech, Inc., priority 1993, dated 1995):
Peptide text beside a SMILES is read from it.

Experiments:
[1] = molecular target: T1, bradykinin receptor of the B2 class (guinea-pig ileum) (Cavia porcellus, UniProt O70526); conditions: Table B; Cys position scan, monomers and BMH dimers
T1 sequence (O70526 1-372): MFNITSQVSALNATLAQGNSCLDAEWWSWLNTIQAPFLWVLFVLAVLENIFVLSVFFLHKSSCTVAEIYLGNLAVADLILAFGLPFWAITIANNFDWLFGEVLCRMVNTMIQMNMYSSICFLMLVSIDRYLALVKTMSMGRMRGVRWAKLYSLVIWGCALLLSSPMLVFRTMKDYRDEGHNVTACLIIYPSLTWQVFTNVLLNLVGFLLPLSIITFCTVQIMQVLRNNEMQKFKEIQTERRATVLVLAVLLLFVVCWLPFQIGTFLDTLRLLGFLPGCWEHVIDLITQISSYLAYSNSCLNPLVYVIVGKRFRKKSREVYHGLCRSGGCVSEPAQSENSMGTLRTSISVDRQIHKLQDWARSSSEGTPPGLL

[2] = molecular target: T2, bradykinin receptor of the B2 class (rat uterus) (Rattus norvegicus, UniProt P25023); assay: Rat uterus (RU) in vitro, antagonism of bradykinin; conditions: Table C, rat uterus
T2 construct: concentration effect curves to bradykinin (BK) on rat uterus in vitro; from tissue; host or cells: rat uterus
T2 sequence (P25023 1-396): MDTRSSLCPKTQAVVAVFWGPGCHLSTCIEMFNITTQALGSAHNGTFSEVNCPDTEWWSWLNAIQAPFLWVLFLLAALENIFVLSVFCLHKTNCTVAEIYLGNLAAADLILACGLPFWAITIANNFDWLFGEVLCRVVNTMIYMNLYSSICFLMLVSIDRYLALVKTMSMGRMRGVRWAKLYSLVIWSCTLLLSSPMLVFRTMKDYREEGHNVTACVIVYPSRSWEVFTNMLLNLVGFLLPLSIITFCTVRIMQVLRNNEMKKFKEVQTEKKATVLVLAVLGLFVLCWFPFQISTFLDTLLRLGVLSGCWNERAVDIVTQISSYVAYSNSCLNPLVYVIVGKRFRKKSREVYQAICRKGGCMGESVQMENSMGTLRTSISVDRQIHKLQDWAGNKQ
How it was run: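 Isolated rat uterus; bradykinin antagonism expressed as pA2, the negative log molar antagonist concentration that halves agonist potency. After the highest antagonist concentration, tissues were washed extensively and percent recovery was recorded.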

Structure (SMILES)	pA2 GUINEA PIG ILEUM [1]	pA2 DIMER [2]	% REC MONOMER [2]	pA2 MONOMER ([2]; P.A. = Partial Agonist)	Kb ([2]; P.A. = Partial Agonist, read-out: pA2 MONOMER (converted))
CC(C)C[C@H](NC(=O)[C@@H](Cc1ccccc1)NC(=O)[C@H](CO)NC(=O)[C@H](Cc1ccccc1)NC(=O)[C@@H](CSC1CC(=O)N(CCCCCCN2C(=O)CC(SC[C@@H](NC(=O)[C@@H]3C[C@@H](O)CN3C(=O)[C@@H]3CCCN3C(=O)[C@H](CCCNC(=N)N)NC(=O)[C@H](N)CCCNC(=N)N)C(=O)N[C@@H](Cc3ccccc3)C(=O)N[C@@H](CO)C(=O)N[C@H](Cc3ccccc3)C(=O)N[C@@H](CC(C)C)C(=O)N[C@@H](CCCNC(=N)N)C(=O)O)C2=O)C1=O)NC(=O)[C@@H]1C[C@@H](O)CN1C(=O)[C@@H]1CCCN1C(=O)[C@H](CCCNC(=N)N)NC(=O)[C@H](N)CCCNC(=N)N)C(=O)N[C@@H](CCCNC(=N)N)C(=O)O (some centres unmarked) [CP-0203] (HELM PEPTIDE1{[dR].R.P.[Hyp].[dC].F.S.[dF].L.R}|PEPTIDE2{[dR].R.P.[Hyp].[dC].F.S.[dF].L.R}|CHEM1{[O=C1CC([*:1])C(=O)N1CCCCCCN1C(=O)CC([*:2])C1=O]}$PEPTIDE1,CHEM1,5:R3-1:R1|PEPTIDE2,CHEM1,5:R3-1:R2$$$V2.0)	Inactive	Inactive	–	–	–
CC(C)C[C@H](NC(=O)[C@@H](Cc1ccccc1)NC(=O)[C@H](CO)NC(=O)[C@H](Cc1ccccc1)NC(=O)CNC(=O)[C@@H]1C[C@@H](O)CN1C(=O)[C@@H]1CCCN1C(=O)[C@H](CCCNC(=N)N)NC(=O)[C@H](N)CCCNC(=N)N)C(=O)N[C@@H](CS)C(=O)O [CP-0148] (HELM PEPTIDE1{[dR].R.P.[Hyp].G.F.S.[dF].L.C}$$$$V2.0)	Inactive	–	100%	Inactive	200 nM
CC(C)C[C@H](NC(=O)[C@@H](Cc1ccccc1)NC(=O)[C@H](CO)NC(=O)[C@H](Cc1ccccc1)NC(=O)[C@@H](CS)NC(=O)[C@@H]1C[C@@H](O)CN1C(=O)[C@@H]1CCCN1C(=O)[C@H](CCCNC(=N)N)NC(=O)[C@H](N)CCCNC(=N)N)C(=O)N[C@@H](CCCNC(=N)N)C(=O)O [CP-0173] (HELM PEPTIDE1{[dR].R.P.[Hyp].[dC].F.S.[dF].L.R}$$$$V2.0)	Inactive	–	–	Inactive	–
CC(C)C[C@H](NC(=O)[C@@H](CS)NC(=O)[C@H](CO)NC(=O)[C@H](Cc1ccccc1)NC(=O)CNC(=O)[C@@H]1C[C@@H](O)CN1C(=O)[C@@H]1CCCN1C(=O)[C@H](CCCNC(=N)N)NC(=O)[C@H](N)CCCNC(=N)N)C(=O)N[C@@H](CCCNC(=N)N)C(=O)O [CP-0146] (HELM PEPTIDE1{[dR].R.P.[Hyp].G.F.S.[dC].L.R}$$$$V2.0)	Inactive	–	–	Inactive	–
N=C(N)NCCC[C@@H](N)C(=O)N[C@@H](CCCNC(=N)N)C(=O)N1CCC[C@H]1C(=O)N1C[C@H](O)C[C@H]1C(=O)NCC(=O)N[C@@H](Cc1ccccc1)C(=O)N[C@@H](CO)C(=O)N[C@H](Cc1ccccc1)C(=O)N[C@@H](CSC1CC(=O)N(CCCCCCN2C(=O)CC(SC[C@H](NC(=O)[C@@H](Cc3ccccc3)NC(=O)[C@H](CO)NC(=O)[C@H](Cc3ccccc3)NC(=O)CNC(=O)[C@@H]3C[C@@H](O)CN3C(=O)[C@@H]3CCCN3C(=O)[C@H](CCCNC(=N)N)NC(=O)[C@H](N)CCCNC(=N)N)C(=O)N[C@@H](CCCNC(=N)N)C(=O)O)C2=O)C1=O)C(=O)N[C@@H](CCCNC(=N)N)C(=O)O (some centres unmarked) [CP-0159] (HELM PEPTIDE1{[dR].R.P.[Hyp].G.F.S.[dF].C.R}|PEPTIDE2{[dR].R.P.[Hyp].G.F.S.[dF].C.R}|CHEM1{[O=C1CC([*:1])C(=O)N1CCCCCCN1C(=O)CC([*:2])C1=O]}$PEPTIDE1,CHEM1,9:R3-1:R1|PEPTIDE2,CHEM1,9:R3-1:R2$$$V2.0)	Inactive	Inactive	–	–	–
CC(C)C[C@H](NC(=O)[C@H](CS)NC(=O)[C@H](CO)NC(=O)[C@H](Cc1ccccc1)NC(=O)CNC(=O)[C@@H]1C[C@@H](O)CN1C(=O)[C@@H]1CCCN1C(=O)[C@H](CCCNC(=N)N)NC(=O)[C@H](N)CCCNC(=N)N)C(=O)N[C@@H](CCCNC(=N)N)C(=O)O [CP-0145] (HELM PEPTIDE1{[dR].R.P.[Hyp].G.F.S.C.L.R}$$$$V2.0)	Inactive	–	–	Inactive	–
CC(C)C[C@H](NC(=O)[C@@H](Cc1ccccc1)NC(=O)[C@H](CO)NC(=O)[C@H](Cc1ccccc1)NC(=O)[C@H](CS)NC(=O)[C@@H]1C[C@@H](O)CN1C(=O)[C@@H]1CCCN1C(=O)[C@H](CCCNC(=N)N)NC(=O)[C@H](N)CCCNC(=N)N)C(=O)N[C@@H](CCCNC(=N)N)C(=O)O [CP-0136] (HELM PEPTIDE1{[dR].R.P.[Hyp].C.F.S.[dF].L.R}$$$$V2.0)	Inactive	–	–	Inactive	–
CC(C)C[C@H](NC(=O)[C@@H](CSC1CC(=O)N(CCCCCCN2C(=O)CC(SC[C@@H](NC(=O)[C@H](CO)NC(=O)[C@H](Cc3ccccc3)NC(=O)CNC(=O)[C@@H]3C[C@@H](O)CN3C(=O)[C@@H]3CCCN3C(=O)[C@H](CCCNC(=N)N)NC(=O)[C@H](N)CCCNC(=N)N)C(=O)N[C@@H](CC(C)C)C(=O)N[C@@H](CCCNC(=N)N)C(=O)O)C2=O)C1=O)NC(=O)[C@H](CO)NC(=O)[C@H](Cc1ccccc1)NC(=O)CNC(=O)[C@@H]1C[C@@H](O)CN1C(=O)[C@@H]1CCCN1C(=O)[C@H](CCCNC(=N)N)NC(=O)[C@H](N)CCCNC(=N)N)C(=O)N[C@@H](CCCNC(=N)N)C(=O)O (some centres unmarked) [CP-0158] (HELM PEPTIDE1{[dR].R.P.[Hyp].G.F.S.[dC].L.R}|PEPTIDE2{[dR].R.P.[Hyp].G.F.S.[dC].L.R}|CHEM1{[O=C1CC([*:1])C(=O)N1CCCCCCN1C(=O)CC([*:2])C1=O]}$PEPTIDE1,CHEM1,8:R3-1:R1|PEPTIDE2,CHEM1,8:R3-1:R2$$$V2.0)	Inactive	Inactive	–	–	–
CC(C)C[C@H](NC(=O)[C@H](CSC1CC(=O)N(CCCCCCN2C(=O)CC(SC[C@H](NC(=O)[C@H](CO)NC(=O)[C@H](Cc3ccccc3)NC(=O)CNC(=O)[C@@H]3C[C@@H](O)CN3C(=O)[C@@H]3CCCN3C(=O)[C@H](CCCNC(=N)N)NC(=O)[C@H](N)CCCNC(=N)N)C(=O)N[C@@H](CC(C)C)C(=O)N[C@@H](CCCNC(=N)N)C(=O)O)C2=O)C1=O)NC(=O)[C@H](CO)NC(=O)[C@H](Cc1ccccc1)NC(=O)CNC(=O)[C@@H]1C[C@@H](O)CN1C(=O)[C@@H]1CCCN1C(=O)[C@H](CCCNC(=N)N)NC(=O)[C@H](N)CCCNC(=N)N)C(=O)N[C@@H](CCCNC(=N)N)C(=O)O (some centres unmarked) [CP-0157] (HELM PEPTIDE1{[dR].R.P.[Hyp].G.F.S.C.L.R}|PEPTIDE2{[dR].R.P.[Hyp].G.F.S.C.L.R}|CHEM1{[O=C1CC([*:1])C(=O)N1CCCCCCN1C(=O)CC([*:2])C1=O]}$PEPTIDE1,CHEM1,8:R3-1:R1|PEPTIDE2,CHEM1,8:R3-1:R2$$$V2.0)	Inactive	Inactive	–	–	–
